Assays:
[1] = DPPH Spectrophotometer Assay (free radical scavenging); assay type: biochemical; conditions: for DPPH EC50: Table 5; for antioxidant properties in words: comment on DPPH and NORA results of Table 5; for antioxidant capacity in words: in both DPPH and nitric oxide free radical systems, Table 3
Description: The free radical 2,2-Diphenyl-1-picrylhydrazyl (DPPH) may be used to determine free radical scavenging ability of test materials such as a scavenging agent of the present invention. […] Measurements are taken after the reaction between the test scavenging agent and DPPH reaches steady state. DPPH is a free radical that changes color when it reacts with an antioxidant. The color change in DPPH is an indication of antioxidant power. […] Thus, DPPH serves as a model for free radical oxidation. Provided below are details for conducting a DPPH Spectrophotometer Assay:
Weigh 100 mg sample into 15 ml conical centrifuge tube.
Add 1 ml DMSO. Vortex to mix.
Dilute samples in MeOH according to Table 2.
Dilute 1 mM DPPH (prepared in 80% MeOH) to 100 uM in 80% MeOH.
In 3 ml cuvette, add 200 uL sample dilution. Add 1.8 ml of 100 uM DPPH.
Mix well. Incubate 15 min at Room Temp. Read at […].
If cuvette appears cloudy due to precipitation of sample, prepare sample dilutions (Table 2) in DMF (or suitable solvent) instead of DMSO. Also prepare DPPH working solution (100 uM) in DMF (or suitable solvent) instead of MeOH.

[2] = Nitric Oxide Radical Absorbance (NORA) assay; assay type: biochemical; conditions: for inhibitory response for nitric oxide in words: comment on Table 3
Procedure: The NORA assay determines the ability of a compound to quench nitric oxide free radicals (NO*) produced by a NO* generator. In the assay, a target compound is oxidized using the nitric oxide generator NOR-3, resulting in increased fluorescence. […] Provided below are details for conducting a Nitric Oxide Radical Absorbance (NORA) Assay:
DHR123: 1.0 mg/3 ml MeOH=1 mM stock (Freeze and protect from light) 7.5 uL stock/10 ml Buffer=0.75 uM working solution.
NOR-3: 1.0 mg NOR-3/100 uL DMSO.
Oil: Weigh 100 mg into 15 ml polypropylene centrifuge tube. Add 5 ml
Prepare sample dilution in a 96-well polypropylene storage plate (2 mL/well), the dilution plate: • A. 60 uL Stock+1.94 ml DMF=200 ug/ml • B. 500 uL 200 ug/ml+500 ul DMF=100 ug/ml • C.
Positive Control: (1 uM Uric Acid)
Add 100 uL of each sample/PC/Blank in duplicate. Row H will contain PC only.
Add 70 uL Phosphate Buffer to all wells.
Add 30 uL NOR-3 to all wells.
Incubate plate 15 min at room temperature.

[3] = amount of test material required to inhibit nitric oxide oxidation by 50%, Table 3
[4] = Antioxidant Power equals 1/EC50, fragrant oils, Table 1

Structure (SMILES)	DPPH EC50 [1] [g/g DPPH]	NORA EC50 ([2]; Table 5) [µg/mL]	NORA EC50 [2, 3] [µg/mL]	also measured
OCCOc1ccccc1 [2-Phenoxyethanol]	>2.82	>10.0	–	–
OCCCc1ccccc1 [3-Phenyl-1-propanol]	>2.82	>10.0	–	–
Cc1cc(C(C)(C)C)c(O)c(C(C)(C)C)c1 [BHT, butylated hydroxytoluene]	0.15	>10.0	–	–
CC12CCC(CC1=O)C2(C)C (stereo not drawn) [Camphor]	>2.82	>10.0	–	–
OCC=Cc1ccccc1 [Cinnamyl alcohol]	>2.82	11.8	–	–
O=c1ccc2ccccc2o1 [Coumarin]	>2.82	>10.0	–	–
CCCCCCCCC(=O)OCC [Ethyl monanoate]	>2.82	>10.0	–	–
CCOC(=O)c1ccc(O)cc1 [Ethyl paraben]	>2.82	>10.0	–	–
C=CCc1ccc(O)c(OC)c1 [Eugenol]	0.12	0.8	–	antioxidant properties in words [1]: excellent antioxidant properties
COc1cc(/C=C/C(=O)O)ccc1O [Ferulic acid]	0.19	0.3	–	antioxidant properties in words [1]: excellent antioxidant properties
CC(C)CC1CC(C)(O)CCO1 (stereo not drawn) [Florosa (Q), Florosa]	–	–	150.33	–
CCCCCC1COCCC1OC(C)=O (stereo not drawn) [Jasmopyrane (Q), Jasmopyrane]	–	–	150.44	inhibitory response for nitric oxide in words [2]: performed more poorly than did lilial
CC(C=O)Cc1ccc(C(C)(C)C)cc1 (stereo not drawn) [Lilial (G), Lilial]	–	–	23.70	inhibitory response for nitric oxide in words [2]: better than expected inhibitory response
C=C(C)[C@H]1CC=C(C)CC1 [Limonene]	>2.82	>10.0	–	–
Cc1occc(=O)c1O [Maltol]	2.82	10.0	–	antioxidant properties in words [1]: performed marginally well
CC1CCC(C(C)C)C(O)C1 (stereo not drawn) [Menthol]	>2.82	>10.0	–	–
Cc1ccc(C(C)C)cc1 [Paracymene]	–	–	274.16	–
CC(=O)CCc1ccc(O)cc1 [Raspberry Ketone]	–	–	10.14	antioxidant capacity in words [1]: greatest antioxidant capacity
Oc1cccc(O)c1 [Resorcinol]	0.74	>10.0	–	antioxidant properties in words [1]: good responses
Cc1ccc(C(C)C)c(O)c1 [Thymol]	0.65	>10.0	–	antioxidant properties in words [1]: good responses
Cc1c(C)c2c(c(C)c1O)CCC(C)(C(=O)O)O2 (stereo not drawn) [Trolox, reference compound]	–	–	0.046	–
O=c1[nH]c(=O)c2[nH]c(=O)[nH]c2[nH]1 [Uric Acid, reference compound]	–	–	0.84	–
COc1cc(C=O)ccc1O [Vanillin]	–	–	8.95	DPPH *AO Power [1, 4]: 0.0112 units/gram; antioxidant capacity in words [1]: greatest antioxidant capacity; NORA AO Power [2, 4]: 93 units/gram
COc1cc(CO)ccc1O [Vanillyl alcohol]	0.16	4.1	–	antioxidant properties in words [1]: excellent antioxidant properties
COc1cccc(CO)c1 [m-Anisyl alcohol]	>2.82	>10.0	–	–

— patent US20060153888A1, “Methods for scavenging oxidizing nitrogen and oxygen species with fragrances having antioxidative properties” (Access Business Group International LLC, priority 2004, published 2006)
